# Experimental data published in US11547715B2, “Use of chlorogenic acid in preparation of drug for treating chordoma” (SICHUAN JIUZHANG BIOLOGICAL SCIENCE AND TECHNOLOGY CO., LTD, priority 2017, dated 2023).
# Columns and labels:
# [1] = system: human chordoma CM-319 cells; assay: CCK-8 proliferation inhibition of human chordoma CM-319 cells; format: cell-based
# Protocol: Drug: chlorogenic acid raw material (99.6% purity, Sichuan Jiuzhang Biotechnology Co., Ltd.) Cell line: human chordoma cell line CM-319 cells (West China Hospital, Sichuan University)
# Human chordoma CM-319 cells growing in logarithmic phase was collected, and the cell concentration was adjusted to 6×10^5 cells/ml with 1640 medium. 100 μL suspension of above cells was taken out and inoculated into 96 well plate, and each experimental group has three replicate wells. To each well, was added 100 μL corresponding drugs, so that the final concentration of chlorogenic acid in the experimental group is 10 μmol/L, 20 μmol/L, and 40 μmol/L, respectively, and then the plate was further cultured for 24 hours. In the negative control group, no drug was added, and only the same volume of 100 μL culture medium was added. After 24 hours, 10 μL CCK-8 solution was added to each well, and the culture plate was incubated in the incubator for another one hour. The absorbance of each well was measured at 450 nm by ELISA. The inhibition of chlorogenic acid on human chordoma CM-319 cells was calculated at various concentrations by using the growth inhibition rate=(absorbance of the negative control group at 450 nm—absorbance of the experimental group at 450 nm)/absorbance of the negative control group at 450 nm×100%.
# [2] = system: MDR1 expression in human chordoma CM-319 cells; details: RT-PCR, FIG. 1
# From the text: MDR1 primer (Shanghai Bioengineering Co., Ltd.); RNA extraction kit (Jiangsu biyuntian); reverse transcription synthesis kit (Jiangsu biyuntian); chlorogenic acid API (purity 99.6%, Sichuan Jiuzhang Biotechnology Co., Ltd.).
# In this example, RT-PCR was used to detect the effect of different experimental groups on the expression of MDR1 in human chordoma CM-319 cells. CM-319 cells cultured in 6-well plate was collected, and RNA extraction kit was used to extract total RNA in cells, then reverse transcription synthesis kit was used to transcribe the first strand of cDNA. After that, PCR amplification reaction was used to detect the expression level of target genes in different experimental groups.
# [3] = different concentrations (10, 20, 40 μmol/L)
smiles,measurement,setting,value
O=C(/C=C/c1ccc(O)c(O)c1)O[C@@H]1C[C@](O)(C(=O)O)C[C@@H](O)[C@H]1O [chlorogenic acid],inhibition at 10 µM,"[1]; Homo sapiens, Group 1: chlorogenic acid 10 μmol/L, 24 hours, CCK-8, read-out: Inhibitory rate of cells (%)",36.8 ± 5.12%
same,inhibition at 20 µM,"[1]; Homo sapiens, Group 2: chlorogenic acid 20 μmol/L, 24 hours, CCK-8, read-out: Inhibitory rate of cells (%)",48.4 ± 6.11%
same,inhibition at 40 µM,"[1]; Homo sapiens, Group 3: chlorogenic acid 40 μmol/L, 24 hours, CCK-8, read-out: Inhibitory rate of cells (%)",55.5 ± 3.78%
same,inhibition of proliferation of human chordoma cells (in words),[1]; [3],strongly inhibit human chordoma cells
same,expression level of MDR1 in CM-319 cells (in words),[2]; [3],reduce the expression level of MDR1 in CM-319 cells to various degrees
same,expression level of drug-resistant genes (MDR1) in cells (in words),"[2]; high concentration 40 μmol/L, compared with other groups",significantly reduce the expression level of drug-resistant genes
